Experimental data as given in patent US10344060B2 (priority 2013, dated 2019).
Bridge positions count the residues as written; N and C are the ends. Square brackets hold non-standard residues; d marks the D form. Peptide text beside a SMILES is read from it. Cha = N[C@@H](CC1CCCCC1)C(=O)O; Ala(CN) = N#CC[C@H](N)C(=O)O; Nle = CCCC[C@H](N)C(=O)O; Pra = C#CC[C@H](N)C(=O)O

Experiments:
hNav1.7 = hNav1.7 (Homo sapiens, UniProt Q15858); experiment: cell-based; type: cell-based; conditions: Table 12; PatchXpress, tonic block; read-out: PX hNav1.7 Tonic IC50
hNav1.4 = hNav1.4 (Homo sapiens, UniProt P35499); experiment: cell-based; type: cell-based; conditions: Table 12; for IC50: PatchXpress, tonic block, read-out: PX hNav1.4 Tonic IC50; for Nav1.4/Nav1.7: ratio of PX tonic IC50 values
Sequence of hNav1.4 (P35499 whole entry): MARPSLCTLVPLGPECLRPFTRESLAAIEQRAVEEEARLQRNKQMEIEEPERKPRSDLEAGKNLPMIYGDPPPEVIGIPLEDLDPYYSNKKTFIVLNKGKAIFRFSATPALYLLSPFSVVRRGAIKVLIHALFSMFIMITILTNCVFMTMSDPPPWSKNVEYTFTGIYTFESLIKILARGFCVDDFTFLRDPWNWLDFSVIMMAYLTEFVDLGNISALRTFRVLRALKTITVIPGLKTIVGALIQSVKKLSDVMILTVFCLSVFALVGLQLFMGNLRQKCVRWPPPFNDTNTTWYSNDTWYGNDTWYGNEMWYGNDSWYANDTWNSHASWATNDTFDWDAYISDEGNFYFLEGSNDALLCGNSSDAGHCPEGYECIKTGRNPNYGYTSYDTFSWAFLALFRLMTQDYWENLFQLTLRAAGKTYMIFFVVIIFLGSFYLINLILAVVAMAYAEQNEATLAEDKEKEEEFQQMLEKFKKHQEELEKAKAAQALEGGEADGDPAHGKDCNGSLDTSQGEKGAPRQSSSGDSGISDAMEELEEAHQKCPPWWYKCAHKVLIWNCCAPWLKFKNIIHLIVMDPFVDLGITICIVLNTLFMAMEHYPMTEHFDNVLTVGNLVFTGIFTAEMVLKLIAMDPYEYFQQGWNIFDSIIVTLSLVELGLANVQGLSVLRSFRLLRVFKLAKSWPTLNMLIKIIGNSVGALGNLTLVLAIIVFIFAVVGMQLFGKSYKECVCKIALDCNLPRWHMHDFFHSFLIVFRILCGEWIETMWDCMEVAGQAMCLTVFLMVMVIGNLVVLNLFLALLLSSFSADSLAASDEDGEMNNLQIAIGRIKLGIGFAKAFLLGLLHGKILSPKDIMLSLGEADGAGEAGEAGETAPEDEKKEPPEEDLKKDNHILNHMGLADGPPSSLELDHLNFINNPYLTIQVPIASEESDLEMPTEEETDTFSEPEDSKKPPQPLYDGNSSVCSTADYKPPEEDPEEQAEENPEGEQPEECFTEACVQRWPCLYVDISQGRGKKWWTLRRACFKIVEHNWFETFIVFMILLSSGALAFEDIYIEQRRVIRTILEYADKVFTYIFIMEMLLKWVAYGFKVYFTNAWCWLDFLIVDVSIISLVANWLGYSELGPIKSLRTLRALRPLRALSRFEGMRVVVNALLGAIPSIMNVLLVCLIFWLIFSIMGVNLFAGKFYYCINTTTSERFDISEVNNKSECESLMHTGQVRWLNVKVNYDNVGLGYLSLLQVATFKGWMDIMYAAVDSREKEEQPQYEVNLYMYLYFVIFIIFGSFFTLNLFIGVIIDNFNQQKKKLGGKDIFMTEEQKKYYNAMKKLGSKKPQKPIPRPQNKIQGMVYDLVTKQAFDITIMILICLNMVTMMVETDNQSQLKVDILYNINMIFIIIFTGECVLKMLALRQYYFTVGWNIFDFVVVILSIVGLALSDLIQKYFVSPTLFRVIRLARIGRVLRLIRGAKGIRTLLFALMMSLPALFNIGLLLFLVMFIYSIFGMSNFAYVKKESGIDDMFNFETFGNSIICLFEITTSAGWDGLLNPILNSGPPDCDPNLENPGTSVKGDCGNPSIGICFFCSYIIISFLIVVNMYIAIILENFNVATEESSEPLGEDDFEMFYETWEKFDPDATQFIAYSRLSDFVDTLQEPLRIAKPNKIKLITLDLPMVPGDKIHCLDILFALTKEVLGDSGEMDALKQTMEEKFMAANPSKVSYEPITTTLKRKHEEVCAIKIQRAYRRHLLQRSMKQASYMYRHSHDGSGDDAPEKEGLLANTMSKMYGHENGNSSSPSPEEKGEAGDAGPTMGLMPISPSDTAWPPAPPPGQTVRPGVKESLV

Sequence of hNav1.7 (Q15858 whole entry): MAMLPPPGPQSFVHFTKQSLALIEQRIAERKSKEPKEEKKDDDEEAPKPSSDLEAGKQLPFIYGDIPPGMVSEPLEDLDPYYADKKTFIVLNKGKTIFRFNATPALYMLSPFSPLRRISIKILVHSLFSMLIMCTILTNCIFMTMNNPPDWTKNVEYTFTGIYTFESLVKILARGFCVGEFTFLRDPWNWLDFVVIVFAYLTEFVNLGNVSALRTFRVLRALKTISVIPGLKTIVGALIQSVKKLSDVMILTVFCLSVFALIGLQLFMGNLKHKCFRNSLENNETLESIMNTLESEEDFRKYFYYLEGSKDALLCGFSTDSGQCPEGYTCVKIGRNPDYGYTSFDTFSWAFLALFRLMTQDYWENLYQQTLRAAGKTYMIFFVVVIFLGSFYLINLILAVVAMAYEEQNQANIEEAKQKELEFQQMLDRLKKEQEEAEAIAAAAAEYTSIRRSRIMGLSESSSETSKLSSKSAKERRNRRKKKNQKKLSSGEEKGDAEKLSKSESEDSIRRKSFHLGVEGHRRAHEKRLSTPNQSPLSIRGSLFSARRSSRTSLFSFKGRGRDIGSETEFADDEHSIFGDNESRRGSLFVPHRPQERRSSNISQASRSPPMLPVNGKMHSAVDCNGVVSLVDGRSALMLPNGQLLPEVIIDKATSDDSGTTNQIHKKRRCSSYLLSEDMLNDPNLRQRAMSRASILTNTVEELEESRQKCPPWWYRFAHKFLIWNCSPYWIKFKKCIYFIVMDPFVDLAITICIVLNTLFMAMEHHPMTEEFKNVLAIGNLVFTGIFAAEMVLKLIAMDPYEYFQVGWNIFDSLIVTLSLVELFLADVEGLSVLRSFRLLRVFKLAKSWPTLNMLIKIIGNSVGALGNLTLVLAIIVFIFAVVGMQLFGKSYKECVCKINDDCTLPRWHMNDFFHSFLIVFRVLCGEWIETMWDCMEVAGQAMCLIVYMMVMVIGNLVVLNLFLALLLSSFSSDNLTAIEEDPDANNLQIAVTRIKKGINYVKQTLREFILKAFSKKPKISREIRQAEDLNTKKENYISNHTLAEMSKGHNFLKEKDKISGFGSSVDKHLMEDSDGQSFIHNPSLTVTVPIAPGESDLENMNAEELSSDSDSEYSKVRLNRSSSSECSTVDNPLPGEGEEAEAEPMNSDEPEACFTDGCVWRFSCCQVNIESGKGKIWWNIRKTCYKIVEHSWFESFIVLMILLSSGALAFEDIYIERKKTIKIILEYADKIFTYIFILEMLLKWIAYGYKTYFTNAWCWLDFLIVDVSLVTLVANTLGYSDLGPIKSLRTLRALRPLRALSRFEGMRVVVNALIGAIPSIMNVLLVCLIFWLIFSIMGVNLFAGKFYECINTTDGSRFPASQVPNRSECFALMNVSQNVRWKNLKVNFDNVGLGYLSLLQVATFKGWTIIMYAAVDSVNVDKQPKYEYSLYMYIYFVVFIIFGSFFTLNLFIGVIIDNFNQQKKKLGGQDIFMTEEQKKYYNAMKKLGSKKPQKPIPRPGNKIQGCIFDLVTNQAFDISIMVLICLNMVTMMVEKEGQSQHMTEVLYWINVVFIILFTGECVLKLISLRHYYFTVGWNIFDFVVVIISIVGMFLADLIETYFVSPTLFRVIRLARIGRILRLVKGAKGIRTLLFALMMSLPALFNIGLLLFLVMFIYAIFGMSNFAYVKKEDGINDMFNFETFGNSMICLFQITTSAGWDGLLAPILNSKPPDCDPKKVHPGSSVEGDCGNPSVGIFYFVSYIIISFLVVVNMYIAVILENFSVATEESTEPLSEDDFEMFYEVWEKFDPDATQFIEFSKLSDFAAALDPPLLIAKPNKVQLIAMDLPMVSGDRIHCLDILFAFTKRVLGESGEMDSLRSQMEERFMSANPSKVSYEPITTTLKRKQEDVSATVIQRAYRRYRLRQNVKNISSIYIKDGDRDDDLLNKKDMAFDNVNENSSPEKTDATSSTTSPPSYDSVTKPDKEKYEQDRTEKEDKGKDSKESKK

SMILES | IC50 (hNav1.7) [nM] | IC50 (hNav1.4) [nM] | Nav1.4/Nav1.7 (hNav1.4)
C#CC[C@@H]1NC(=O)[C@@H]2CSSC[C@H](NC(=O)[C@H](CCC(=O)O)NC(=O)[C@@H](N)CC#N)C(=O)N[C@@H](CCC(N)=O)C(=O)N[C@@H](CCCCN)C(=O)N[C@@H](Cc3c[nH]c4ccccc34)C(=O)N[C@@H](CCCC)C(=O)N[C@@H](Cc3c[nH]c4ccccc34)C(=O)N[C@@H]([C@@H](C)O)C(=O)N[C@H]3CSSC[C@H](NC(=O)[C@H](CCCNC(=N)N)NC(=O)[C@H](CC(C)C)NC(=O)CNC1=O)C(=O)N[C@@H](CCCCN)C(=O)N[C@@H](CC(C)C)C(=O)N[C@@H](Cc1c[nH]c4ccccc14)C(=O)N[C@H](C(=O)N[C@@H](CCCNC(=N)N)C(=O)N[C@@H](CCCCN)C(=O)N[C@@H](CCC(=O)O)C(=O)N[C@@H](CC1CCCCC1)C(N)=O)CSSC[C@H](NC(=O)[C@H](C)NC(=O)[C@H](CCCNC(=N)N)NC(=O)[C@H](CCCCN)NC(=O)[C@H](CO)NC(=O)[C@H](CC(=O)O)NC3=O)C(=O)N2 [compound 866] | 0.321 | 37.6 | 117
C#CC[C@@H]1NC(=O)[C@@H]2CSSC[C@H](NC(=O)[C@H](CCC(=O)O)NC(=O)[C@@H](N)CC#N)C(=O)N[C@@H](CCC(N)=O)C(=O)N[C@@H](CCCCN)C(=O)N[C@@H](Cc3c[nH]c4ccccc34)C(=O)N[C@@H](CCCC)C(=O)N[C@@H](Cc3c[nH]c4ccccc34)C(=O)N[C@@H]([C@@H](C)O)C(=O)N[C@H]3CSSC[C@H](NC(=O)[C@H](CCCNC(=N)N)NC(=O)[C@H](CC(C)C)NC(=O)CNC1=O)C(=O)N[C@@H](CCCCN)C(=O)N[C@@H](CC(C)C)C(=O)N[C@@H](Cc1c[nH]c4ccccc14)C(=O)N[C@H](C(=O)N[C@@H](CCCNC(=N)N)C(=O)N[C@@H](CCCCN)C(=O)N[C@@H](CCC(=O)O)C(=O)N[C@@H](CC1CCCCC1)C(N)=O)CSSC[C@H](NC(=O)[C@H](C)NC(=O)[C@H](CCCNC(=N)N)NC(=O)[C@H](CCCCN)NC(=O)[C@H](CCC(=O)O)NC(=O)[C@H](CC(=O)O)NC3=O)C(=O)N2 [compound 869] (H-[Ala(CN)]ECQKW[Nle]WTCDEKRACC[Pra]GLRCKLWCRKE[Cha]-NH2; disulfide 3-17, 10-22, 16-26) | 0.95 | 294 | 311
C#CC[C@H](N)C(=O)N[C@@H](Cc1ccc(O)cc1)C(=O)N[C@H]1CSSC[C@@H]2NC(=O)[C@@H]3CSSC[C@@H](C(=O)N[C@@H](CCCNC(=N)N)C(=O)N[C@@H](CCCCN)C(=O)N[C@H](C(=O)N[C@H](C(N)=O)[C@@H](C)CC)[C@@H](C)CC)NC(=O)[C@H](Cc4c[nH]c5ccc(Br)cc45)NC(=O)[C@H](CC(C)C)NC(=O)[C@H](CCCCN)NC(=O)[C@H](CSSC[C@H](NC(=O)[C@H]([C@@H](C)O)NC(=O)[C@H](Cc4c[nH]c5ccccc45)NC(=O)[C@H](CCCC)NC(=O)[C@H](Cc4c[nH]c5ccccc45)NC(=O)[C@H](CCCCN)NC(=O)[C@H](CCC(N)=O)NC1=O)C(=O)N[C@@H](CC(=O)O)C(=O)N[C@@H](CO)C(=O)N[C@@H](CCCCN)C(=O)N[C@@H](CCCNC(=N)N)C(=O)N[C@@H](C)C(=O)N3)NC(=O)[C@H](CCCNC(=N)N)NC(=O)[C@H](CC(C)C)NC(=O)CNC(=O)[C@H](CCC(=O)O)NC2=O [compound 871] | 1.66 | 11 | 7
C#CC[C@@H]1NC(=O)[C@@H]2CSSC[C@H](NC(=O)[C@H](Cc3ccc(O)cc3)NC(=O)[C@@H](N)CC#N)C(=O)N[C@@H](CCC(N)=O)C(=O)N[C@@H](CCCCN)C(=O)N[C@@H](Cc3c[nH]c4ccccc34)C(=O)N[C@@H](CCCC)C(=O)N[C@@H](Cc3c[nH]c4ccccc34)C(=O)N[C@@H]([C@@H](C)O)C(=O)N[C@H]3CSSC[C@H](NC(=O)[C@H](CCCNC(=N)N)NC(=O)[C@H](CC(C)C)NC(=O)CNC1=O)C(=O)N[C@@H](CCCCN)C(=O)N[C@@H](CC(C)C)C(=O)N[C@@H](Cc1c[nH]c4ccc(Br)cc14)C(=O)N[C@H](C(=O)N[C@@H](CCCNC(=N)N)C(=O)N[C@@H](CCCCN)C(=O)N[C@H](C(=O)N[C@H](C(N)=O)[C@@H](C)CC)[C@@H](C)CC)CSSC[C@H](NC(=O)[C@H](C)NC(=O)[C@H](CCCNC(=N)N)NC(=O)[C@H](CCCCN)NC(=O)[C@H](CO)NC(=O)[C@H](CC(=O)O)NC3=O)C(=O)N2 [compound 872] | 1.09 | 3.6 | 3
C#CC[C@@H]1NC(=O)[C@@H]2CSSC[C@H](NC(=O)[C@H](Cc3ccc(O)cc3)NC(=O)[C@@H](N)CC#N)C(=O)N[C@@H](CCC(N)=O)C(=O)N[C@@H](CCCCN)C(=O)N[C@@H](Cc3c[nH]c4ccccc34)C(=O)N[C@@H](CCCC)C(=O)N[C@@H](Cc3c[nH]c4ccccc34)C(=O)N[C@@H]([C@@H](C)O)C(=O)N[C@H]3CSSC[C@H](NC(=O)[C@H](CCCNC(=N)N)NC(=O)[C@H](CC(C)C)NC(=O)CNC1=O)C(=O)N[C@@H](CCCCN)C(=O)N[C@@H](CC(C)C)C(=O)N[C@@H](Cc1c[nH]c4ccccc14)C(=O)N[C@H](C(=O)N[C@@H](CCCNC(=N)N)C(=O)N[C@@H](CCCCN)C(=O)N[C@@H](CCC(=O)O)C(=O)N[C@@H](Cc1ccccc1)C(N)=O)CSSC[C@H](NC(=O)[C@H](C)NC(=O)[C@H](CCCNC(=N)N)NC(=O)[C@H](CCCCN)NC(=O)[C@H](CO)NC(=O)[C@H](CC(=O)O)NC3=O)C(=O)N2 [compound 876] | 1.09 | 72.1 | 66
C#CC[C@@H]1NC(=O)[C@@H]2CSSC[C@H](NC(=O)[C@H](Cc3ccc(O)cc3)NC(=O)[C@@H](N)CC#N)C(=O)N[C@@H](CCC(N)=O)C(=O)N[C@@H](CCCCN)C(=O)N[C@@H](Cc3c[nH]c4ccccc34)C(=O)N[C@@H](CCCC)C(=O)N[C@@H](Cc3c[nH]c4ccccc34)C(=O)N[C@@H]([C@@H](C)O)C(=O)N[C@H]3CSSC[C@H](NC(=O)[C@H](CCCNC(=N)N)NC(=O)[C@H](CC(C)C)NC(=O)CNC1=O)C(=O)N[C@@H](CCCCN)C(=O)N[C@@H](CC(C)C)C(=O)N[C@@H](Cc1c[nH]c4ccccc14)C(=O)N[C@H](C(=O)N[C@@H](CCCNC(=N)N)C(=O)N[C@@H](CCCCN)C(=O)N[C@@H](CCC(=O)O)C(=O)N[C@@H](CCc1ccccc1)C(N)=O)CSSC[C@H](NC(=O)[C@H](C)NC(=O)[C@H](CCCNC(=N)N)NC(=O)[C@H](CCCCN)NC(=O)[C@H](CO)NC(=O)[C@H](CC(=O)O)NC3=O)C(=O)N2 [compound 877] | 0.16 | 14.9 | 93
C#CC[C@@H]1NC(=O)[C@@H]2CSSC[C@H](NC(=O)[C@H](Cc3ccc(O)cc3)NC(=O)[C@@H](N)CC#N)C(=O)N[C@@H](CCC(N)=O)C(=O)N[C@@H](CCCCN)C(=O)N[C@@H](Cc3c[nH]c4ccccc34)C(=O)N[C@@H](CCCC)C(=O)N[C@@H](Cc3c[nH]c4ccccc34)C(=O)N[C@@H]([C@@H](C)O)C(=O)N[C@H]3CSSC[C@H](NC(=O)[C@H](CCCNC(=N)N)NC(=O)[C@H](CC(C)C)NC(=O)CNC1=O)C(=O)N[C@@H](CCCCN)C(=O)N[C@@H](CC(C)C)C(=O)N[C@@H](Cc1c[nH]c4ccc(Br)cc14)C(=O)N[C@H](C(=O)N[C@@H](CCCNC(=N)N)C(=O)N[C@@H](CCCCN)C(=O)N[C@H](C(=O)N[C@H](C(N)=O)[C@@H](C)CC)[C@@H](C)CC)CSSC[C@H](NC(=O)[C@H](C)NC(=O)[C@H](CCCNC(=N)N)NC(=O)[C@H](CCCCN)NC(=O)[C@H](CCC(=O)O)NC(=O)[C@H](CC(=O)O)NC3=O)C(=O)N2 [compound 1244] | 0.64 | 7.4 | 12
C#CC[C@H](N)C(=O)N[C@@H](Cc1ccc(O)cc1)C(=O)N[C@H]1CSSC[C@@H]2NC(=O)[C@@H]3CSSC[C@@H](C(=O)N[C@@H](CCCNC(=N)N)C(=O)N[C@@H](CCCCN)C(=O)N[C@@H](CCC(=O)O)C(=O)N[C@H](C(N)=O)[C@@H](C)CC)NC(=O)[C@H](Cc4c[nH]c5ccccc45)NC(=O)[C@H](CC(C)C)NC(=O)[C@H](CCCCN)NC(=O)[C@H](CSSC[C@H](NC(=O)[C@H]([C@@H](C)O)NC(=O)[C@H](Cc4c[nH]c5ccccc45)NC(=O)[C@H](CCCC)NC(=O)[C@H](CCc4ccc(Br)cc4)NC(=O)[C@H](CCCCN)NC(=O)[C@H](CCC(N)=O)NC1=O)C(=O)N[C@@H](CC(=O)O)C(=O)N[C@@H](CO)C(=O)N[C@@H](CCCCN)C(=O)N[C@@H](CCCNC(=N)N)C(=O)N[C@@H](C)C(=O)N3)NC(=O)[C@H](CCCNC(=N)N)NC(=O)[C@H](CC(C)C)NC(=O)CNC(=O)[C@H](CCC(=O)O)NC2=O [compound 1603] | 0.23 | 47.9 | 207
C#CC[C@@H]1NC(=O)[C@@H]2CSSC[C@H](NC(=O)[C@H](Cc3ccc(O)cc3)NC(=O)[C@@H](N)CC#N)C(=O)N[C@@H](CCC(N)=O)C(=O)N[C@@H](CCCCN)C(=O)N[C@@H](Cc3c[nH]c4ccccc34)C(=O)N[C@@H](CCCC)C(=O)N[C@@H](Cc3c[nH]c4ccccc34)C(=O)N[C@@H]([C@@H](C)O)C(=O)N[C@H]3CSSC[C@H](NC(=O)[C@H](CCCNC(=N)N)NC(=O)[C@H](CC(C)C)NC(=O)CNC1=O)C(=O)N[C@@H](CCCCN)C(=O)N[C@@H](CC(C)C)C(=O)N[C@@H](Cc1c[nH]c4ccc(C)cc14)C(=O)N[C@H](C(=O)N[C@@H](CCCNC(=N)N)C(=O)N[C@@H](CCCCN)C(=O)N[C@@H](CCC(=O)O)C(=O)N[C@H](C(N)=O)[C@@H](C)CC)CSSC[C@H](NC(=O)[C@H](C)NC(=O)[C@H](CCCNC(=N)N)NC(=O)[C@H](CCCCN)NC(=O)[C@H](CO)NC(=O)[C@H](CC(=O)O)NC3=O)C(=O)N2 [compound 1662] | 0.52 | 89.8 | 172
C#CC[C@@H]1NC(=O)[C@@H]2CSSC[C@H](NC(=O)[C@@H](N)CC#N)C(=O)N[C@@H](CCC(N)=O)C(=O)N[C@@H](CCCCN)C(=O)N[C@@H](Cc3c[nH]c4ccccc34)C(=O)N[C@@H](CCCC)C(=O)N[C@@H](Cc3c[nH]c4ccccc34)C(=O)N[C@@H]([C@@H](C)O)C(=O)N[C@H]3CSSC[C@H](NC(=O)[C@H](CCCNC(=N)N)NC(=O)[C@H](CC(C)C)NC(=O)CNC1=O)C(=O)N[C@@H](CCCCN)C(=O)N[C@@H](CC(C)C)C(=O)N[C@@H](Cc1c[nH]c4ccccc14)C(=O)N[C@H](C(=O)N[C@@H](CCCNC(=N)N)C(=O)N[C@@H](CCCCN)C(=O)N[C@@H](CCC(=O)O)C(=O)N[C@H](C(N)=O)[C@@H](C)CC)CSSC[C@H](NC(=O)[C@H](C)NC(=O)[C@H](CCCNC(=N)N)NC(=O)[C@H](CCCCN)NC(=O)[C@H](CCC(=O)O)NC(=O)[C@H](CC(=O)O)NC3=O)C(=O)N2 [compound 1672] | 2.87 | 457 | 159
